Results: ChEMBL document CHEMBL3853283, “Nitric Oxide Inhibitory Meroterpenoids from the Fungus Penicillium purpurogenum MHZ 111” (J Nat Prod, 2016)

Tests used:
[1] = test system: BV-2 microglial cells (Mus musculus); test: Antineuroinflammatory activity in mouse BV2 cells assessed as inhibition of LPS-induced nitric oxide production at 50 uM preincubated for 10 mins followed by LPS stimulation for 24 hrs by Griess assay
[2] = Cytotoxicity against […] cells assessed as decrease in cell viability up to 100 uM preincubated for 10 mins followed by LPS stimulation for 24 hrs by MTT assay; format: toxicity, cell-based; details: bv-2, 24 h
[3] = Antineuroinflammatory activity in […] of LPS-induced nitric oxide production preincubated for 10 mins followed by LPS stimulation for 24 hrs by Griess assay; format: functional, cell-based; details: BV-2

Compound | inhibition at 50 µM [1] | Activity [2] | IC50 [3]
CC1Cc2c3c(cc(O)c2C(=O)O1)O[C@@]1(C)[C@@H](O)C[C@H]2C(C)(C)C(=O)C=C[C@]2(C)[C@@H]1C3 (stereo partly drawn) | < 50% |  | 
CC1=C2CC(=O)OC(C)(C)C2=CC[C@@]2(C)[C@H]1C[C@@]1(C)C(=O)[C@@]3(C)O[C@]14COC(=O)[C@@]42C3=O | < 50% |  | 
COC(=O)[C@]12C(=O)[C@@](C)(O)C(=O)[C@](C)(C[C@H]3C(C)=C4CC(=O)OC(C)(C)C4=CC[C@@]31C)[C@]21CO1 | < 50% |  | 
C[C@H]1O[C@@H]2OC(=O)[C@]3(C)CC4=C(CO)C5=C(CC(=O)[C@]4(C)[C@H](C1=O)[C@H]23)C(C)(C)OC(=O)C5 | < 50% |  | 
CC(=O)O[C@@H]1c2c3c(cc(O)c2C(=O)OC1C)O[C@@]1(C)[C@@H](O)C[C@H]2C(C)(C)C(=O)C=C[C@]2(C)[C@@H]1C3 (stereo partly drawn) | < 50% |  | 
C[C@@H]1O[C@@H]2OC(=O)[C@]3(C)C[C@@H]4[C@](C)(C(=O)C=C5C(=CC(=O)OC5(C)C)[C@@]45CO5)[C@H](C1=O)[C@H]23 [BERKELEYACETAL C] |  | Non-Toxic | 0.8 µM
COc1ccc2c(c1)c(CC(=O)O)c(C)n2C(=O)c1ccc(Cl)cc1 [INDOMETHACIN] |  |  | 34.5 µM
